Converted amounts (≈) assume the structure as drawn.
Legend:
Format in all cases: cell-based, Staphylococcus aureus
Staph aureus 2812 = assay: MIC, microtiter broth dilution (CLSI M7-A7), Assay 1, Table 12 column E, no serum; conditions: for MIC, column E: Staph aureus 2812, Assay 1, no serum; for MIC: Staphylococcus aureus, 2812, Staph aureus 2812, Assay 1, no serum
Description: (§1) The assays described herein include a panel of bacterial isolates of Staphylococcus aureus. Assay 1 comprises the strains noted in Columns A through E, and Assay 2 comprises the strains noted in Columns F through H. The assays are performed in microtiter trays according to Methods for Dilution Antimicrobial Susceptibility Tests for Bacteria that Grow Aerobically; Approved Standard-7th edition (M7-A7) and interpreted according to the Performance Standards for Antimicrobial Susceptibility Testing; 16th Informational Supplement (M100-S16) published by Clinical Laboratory Standards Institute (CLSI). The antibacterial activity is presented in the form of a minimum inhibitory concentration (MIC) value in μg/ml format. The MIC value represents the lowest concentration of drug measured which prevented macroscopically visible growth under the conditions and specific doses tested. The compounds were initially dissolved in DMSO as 30 mM stocks and diluted accordingly to adjust to a concentration of 10 mg/ml or the compounds were dissolved in DMSO at a concentration of 10 mg/ml. For assessment of activity in the presence of human serum, S. aureus 1146 and S. aureus 1031 were inoculated into Mueller-Hinton Broth with 50% pooled inactivated human serum. In some cases, compounds were tested more than once in a particular assay. Where noted, the MIC value shown in Table 12 represents the geometric mean of the data from multiple runs.
(§2) It should be understood that the data in columns A-H represents MIC data in μg/ml and the notation “<=” means ‘less than or equal to’.

Staph aureus 1095 MRSA = assay: MIC, microtiter broth dilution (CLSI M7-A7), Assay 1, Table 12 column A, no serum; conditions: Assay 1, no serum; for MIC: Staphylococcus aureus, MRSA
Description: as §1, §2

Staph aureus 1146 [1] = assay: MIC, microtiter broth dilution (CLSI M7-A7), Assay 1, Table 12 column B, no serum; conditions: for MIC, column B: Staph aureus 1146, Assay 1, no serum; for MIC: Staphylococcus aureus, 1146, Staph aureus 1146, Assay 1, no serum
Description: as §1, §2

Staph aureus 1146 [2] = assay: MIC in Mueller-Hinton Broth with 50% pooled inactivated human serum, Assay 1, Table 12; conditions: for MIC, column C: Staph aureus 1146, Assay 1, 50% human serum; for MIC: Staphylococcus aureus, 1146, Staph aureus 1146, Assay 1, 50% human serum, read-out: MIC, column C
Description: as §1, §2

Staph aureus 2811 = assay: MIC, microtiter broth dilution (CLSI M7-A7), Assay 1, Table 12 column D, no serum; conditions: for MIC, column D: Staph aureus 2811, Assay 1, no serum; for MIC: Staphylococcus aureus, 2811, Staph aureus 2811, Assay 1, no serum
Description: as §1, §2

Row | Compound | MIC, column E (Staph aureus 2812) [µg/mL] | MIC, column A (Staph aureus 1095 MRSA) [µg/mL] | MIC, column B (Staph aureus 1146 [1]) [µg/mL] | MIC, column C (Staph aureus 1146 [2]) [µg/mL] | MIC, column D (Staph aureus 2811) [µg/mL] | MIC (Staph aureus 2812) [µg/mL] | MIC (Staph aureus 1095 MRSA) [µg/mL] | MIC (Staph aureus 1146 [1]) [µg/mL] | MIC (Staph aureus 1146 [2]) [µg/mL] | MIC (Staph aureus 2811) [µg/mL]
1 | COc1ccc2nccc(C(O)CC[C@@H]3CCN(C4CC(c5ccccc5F)C4)C[C@@H]3C(=O)O)c2c1 (stereo partly drawn) [Example 7, (3R,4R)-1-[3-(2-fluorophenyl)cyclobutyl]-4-[3-hydroxy-3-(6-methoxyquinolin-4-yl)propyl] piperidine-3-carboxylic acid] | – | – | – | – | – | 0.125 (≈ 0.254 µM) | 0.25 (≈ 0.508 µM) | 0.125 (≈ 0.254 µM) | 1 (≈ 2.03 µM) | 0.125 (≈ 0.254 µM)
2 | COc1ccc2nccc(C(CC[C@@H]3CCN(C4CC(c5ccccc5)C4)C[C@@H]3C(=O)O)OC)c2c1 (stereo partly drawn) [Example 10, (3R,4R)-4-[3-methoxy-3-(6-methoxyquinolin-4-yl)propyl]-1-(3-phenylcyclobutyl)piperidine-3-carboxylic acid] | 0.5 (≈ 1.02 µM) | – | 0.5 (≈ 1.02 µM) | 16 (≈ 32.7 µM) | 0.5 (≈ 1.02 µM) | – | 1 (≈ 2.05 µM) | – | – | –
3 | COc1ccc2nccc(C(CC[C@@H]3CCN(C4CC(c5ccccc5)C4)C[C@@H]3C(=O)O)OC)c2c1 (stereo partly drawn) [Example 11, (3R,4R)-4-[3-methoxy-3-(6-methoxyquinolin-4-yl)propyl]-1-(3-phenylcyclobutyl)piperidine-3-carboxylic acid] | 2 (≈ 4.09 µM) | 1 (≈ 2.05 µM) | 2 (≈ 4.09 µM) | >64 | 2 (≈ 4.09 µM) | – | – | – | – | –
4 | COc1ccc2ncc(F)c(CCCC3(C(=O)O)CCN(C4CC(c5ccccc5)C4)CC3)c2c1 (stereo not shown) [Example 23, 4-[3-(3-fluoro-6-methoxyquinolin-4-yl)propyl]-1-(3-phenylcyclobutyl)piperidine-4-carboxylic acid] | – | – | – | – | – | ≤ 0.0625 | ≤ 0.0625 | ≤ 0.0625 | > 64 | ≤ 0.0625
5 | COc1ccc2ncc(F)c(C(O)CCC3(C(=O)O)CCN(C4CC(c5ccccc5)C4)CC3)c2c1 (stereo not shown) [Example 24, 4-[3-(3-fluoro-6-methoxyquinolin-4-yl)-3-hydroxypropyl]-1-(3-phenylcyclobutyl)piperidine-4-carboxylic acid] | – | – | – | – | – | 8 (≈ 16.2 µM) | 16 (≈ 32.5 µM) | 4 (≈ 8.12 µM) | > 64 | 4 (≈ 8.12 µM)
6 | COc1ccc2nccc(C(O)CC[C@@H]3CCN(C4CC(c5cccc(Cl)c5)C4)C[C@@H]3C(=O)O)c2c1 (stereo partly drawn) [Example 29, (3R,4R)-1-[3-(3-chlorophenyl)cyclobutyl]-4-[3-hydroxy-3-(6-methoxyquinolin-4-yl)propyl] piperidine-3-carboxylic acid] | – | – | – | – | – | 0.25 (≈ 0.491 µM) | 0.5 (≈ 0.982 µM) | 0.25 (≈ 0.491 µM) | 4 (≈ 7.86 µM) | 0.25 (≈ 0.491 µM)
7 | COc1ccc2nccc(C(O)CC[C@@H]3CCN(C4CC(c5ccc(O)c(OC)c5)C4)C[C@@H]3C(=O)O)c2c1 (stereo partly drawn) [Example 33, (3R,4R)-1-[3-(4-hydroxy-3-methoxyphenyl)cyclobutyl]-4-[3-hydroxy-3-(6-methoxyquinolin-4-yl)propyl]piperidine-3-carboxylic acid] | – | – | – | – | – | > 64 | > 64 | > 64 | > 64 | > 64
8 | COc1ccc2nccc(C(O)CC[C@@H]3CCN(C4CC(c5ccccc5C)C4)C[C@@H]3C(=O)O)c2c1 (stereo partly drawn) [Example 34, (3R,4R)-4-[3-hydroxy-3-(6-methoxyquinolin-4-yl)propyl]-1-[3-(2-methylphenyl)cyclobutyl] piperidine-3-carboxylic acid] | – | – | – | – | – | 0.5 (≈ 1.02 µM) | 1 (≈ 2.05 µM) | 1 (≈ 2.05 µM) | 16 (≈ 32.7 µM) | 0.5 (≈ 1.02 µM)
9 | COc1ccc2nccc(C(O)CC[C@@H]3CCN(C4CC(c5c(C)cccc5C)C4)C[C@@H]3C(=O)O)c2c1 (stereo partly drawn) [Example 35, (3R,4R)-1-[3-(2,6-dimethylphenyl)cyclobutyl]-4-[3-hydroxy-3-(6-methoxyquinolin-4-yl)propyl] piperidine-3-carboxylic acid] | – | – | – | – | – | 1 (≈ 1.99 µM) | 4 (≈ 7.96 µM) | 1 (≈ 1.99 µM) | 64 (≈ 127 µM) | 1 (≈ 1.99 µM)

Results, then the compound that gave them:

Row | MIC, column E (Staph aureus 2812) [µg/mL] | MIC, column A (Staph aureus 1095 MRSA) [µg/mL] | MIC, column B (Staph aureus 1146 [1]) [µg/mL] | MIC, column C (Staph aureus 1146 [2]) [µg/mL] | MIC, column D (Staph aureus 2811) [µg/mL] | MIC (Staph aureus 2812) [µg/mL] | MIC (Staph aureus 1095 MRSA) [µg/mL] | MIC (Staph aureus 1146 [1]) [µg/mL] | MIC (Staph aureus 1146 [2]) [µg/mL] | MIC (Staph aureus 2811) [µg/mL] | Compound
10 | 2 (≈ 3.94 µM) | 4 (≈ 7.88 µM) | 2 (≈ 3.94 µM) | 4 (≈ 7.88 µM) | 2 (≈ 3.94 µM) | – | – | – | – | – | COc1ccc2ncc(F)c([C@@H](O)CNC3(C(=O)O)CCCN(C4CC(c5ccccc5)C4)CC3)c2c1 (single isomer, unassigned) [Example 150]
11 | – | – | – | – | – | 1 (≈ 2.05 µM) | 2 (≈ 4.09 µM) | 1 (≈ 2.05 µM) | 16 (≈ 32.7 µM) | 2 (≈ 4.09 µM) | COc1ccc2nccc(C(O)CC[C@@H]3CCN(C4CC(c5ccc(C)cc5)C4)C[C@@H]3C(=O)O)c2c1 (stereo partly drawn) [Example 6, (3R,4R)-4-[3-hydroxy-3-(6-methoxyquinolin-4-yl)propyl]-1-[3-(4-methylphenyl)cyclobutyl]piperidine-3-carboxylic acid]
12 | – | – | – | – | – | 0.25 (≈ 0.51 µM) | 0.25 (≈ 0.51 µM) | 0.25 (≈ 0.51 µM) | 8 (≈ 16.3 µM) | 0.125 (≈ 0.255 µM) | COc1ccc2nccc(C(O)CC[C@@H]3CCN(C4CC(Oc5ccccc5)C4)C[C@@H]3C(=O)O)c2c1 (stereo partly drawn) [Example 8, (3R,4R)-4-[3-hydroxy-3-(6-methoxyquinolin-4-yl)propyl]-1-(3-phenoxycyclobutyl)piperidine-3-carboxylic acid]
13 | – | – | – | 8 (≈ 16.4 µM) | – | 2 (≈ 4.09 µM) | 4 (≈ 8.19 µM) | 2 (≈ 4.09 µM) | – | 2 (≈ 4.09 µM) | COc1ccc2nccc(C(O)CC[C@@H]3CCN(C4CC(c5ccccc5)C4)CC3(C)C(=O)O)c2c1 (stereo partly drawn) [Example 12, (4R)-4-[3-hydroxy-3-(6-methoxyquinolin-4-yl)propyl]-3-methyl-1-(3-phenylcyclobutyl) piperidine-3-carboxylic acid]
14 | 2 (≈ 4.09 µM) | 4 (≈ 8.19 µM) | 4 (≈ 8.19 µM) | 32 (≈ 65.5 µM) | 2 (≈ 4.09 µM) | – | – | – | – | – | COc1ccc2nccc(C(O)CC[C@@H]3CCN(C4CC(c5ccccc5)C4)CC3(C)C(=O)O)c2c1 (stereo partly drawn) [Example 13, (4R)-4-[3-hydroxy-3-(6-methoxyquinolin-4-yl)propyl]-3-methyl-1-(3-phenylcyclobutyl) piperidine-3-carboxylic acid]
15 | – | – | – | – | – | ≤ 0.0625 | ≤ 0.0625 | ≤ 0.0625 | 0.5 (≈ 0.946 µM) | ≤ 0.0625 | COc1ccc2ncc(F)c(C(O)CC[C@@H]3CCN(C4CC(c5c(F)cccc5F)C4)C[C@@H]3C(=O)O)c2c1 (stereo partly drawn) [Example 17, (3R,4R)-1-[3-(2,6-difluorophenyl)cyclobutyl]-4-[3-(3-fluoro-6-methoxyquinolin-4-yl)-3-hydroxypropyl]piperidine-3-carboxylic acid]
16 | – | – | – | – | – | 4 (≈ 8.41 µM) | 16 (≈ 33.6 µM) | 4 (≈ 8.41 µM) | 16 (≈ 33.6 µM) | 4 (≈ 8.41 µM) | COc1ccc2nccc(C(O)CC[C@@H]3CCN(C4CC(c5ccccn5)C4)C[C@@H]3C(=O)O)c2c1 (stereo partly drawn) [Example 21, (3R,4R)-4-[3-hydroxy-3-(6-methoxyquinolin-4-yl)propyl]-1-(3-pyridin-2-ylcyclobutyl)piperidine-3-carboxylic acid]
17 | – | – | – | – | – | 2 (≈ 4.04 µM) | 4 (≈ 8.07 µM) | 1 (≈ 2.02 µM) | 8 (≈ 16.1 µM) | 1 (≈ 2.02 µM) | COc1ccc2nccc(C(O)CC[C@@H]3CCN(C4CC(c5cc(C)sn5)C4)C[C@@H]3C(=O)O)c2c1 (stereo partly drawn) [Example 22, (3R,4R)-4-[3-hydroxy-3-(6-methoxyquinolin-4-yl)propyl]-1-[3-(5-methylisothiazol-3-yl)cyclobutyl] piperidine-3-carboxylic acid]
18 | – | – | – | – | – | 8 (≈ 14.7 µM) | 4 (≈ 7.37 µM) | 8 (≈ 14.7 µM) | > 64 | 4 (≈ 7.37 µM) | COc1ccc2nccc(C(O)CC[C@@H]3CCN(C4CC(c5ccc(C(F)(F)F)cc5)C4)C[C@@H]3C(=O)O)c2c1 (stereo partly drawn) [Example 30, (3R,4R)-4-[3-hydroxy-3-(6-methoxyquinolin-4-yl)propyl]-1-{3-[4-(trifluoromethyl)phenyl]cyclobutyl} piperidine-3-carboxylic acid]
19 | – | – | – | – | – | 32 (≈ 65.2 µM) | 16 (≈ 32.6 µM) | 32 (≈ 65.2 µM) | > 64 | 32 (≈ 65.2 µM) | COc1ccc2nccc(C(O)CC[C@@H]3CCN(C4CC(c5ccc(O)cc5)C4)C[C@@H]3C(=O)O)c2c1 (stereo partly drawn) [Example 31, (3R,4R)-4-[3-hydroxy-3-(6-methoxyquinolin-4-yl)propyl]-1-[3-(4-hydroxyphenyl)cyclobutyl] piperidine-3-carboxylic acid]
20 | – | – | – | – | – | 64 (≈ 120 µM) | 64 (≈ 120 µM) | > 64 | > 64 | 64 (≈ 120 µM) | COc1ccc2nccc(C(O)CC[C@@H]3CCN(C4CC(c5ccc(OC)c(OC)c5)C4)C[C@@H]3C(=O)O)c2c1 (stereo partly drawn) [Example 32, (3R,4R)-1-[3-(3,4-dimethoxyphenyl)cyclobutyl]-4-[3-hydroxy-3-(6-methoxyquinolin-4-yl)propyl] piperidine-3-carboxylic acid]

Reference: patent US20080280879A1, “SUBSTITUTED HETEROCYCLIC DERIVATIVES AND THEIR PHARMACEUTICAL USE AND COMPOSITIONS” (priority 2007, published 2008)
